Structures can show the parent of a compound that is named as a salt.
Experiments:
PDGFR beta = target: T1, PDGFR beta (Homo sapiens, UniProt P09619); test: Phospho PDGFR LICOR Cell Assay (Example B); assay type: cell-based; settings: averaged IC50; PDGFR beta phosphorylation in HS27 human fibroblast cell line, PDGF-BB stimulation 10 minutes, normalized to total ERK
T1 construct: endogenous in cells; host or cells: HS27 human fibroblast cell line
Procedure, shortened: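 Read-out is in-cell phospho-PDGFRβ/total-ERK infrared immunofluorescence in HS27 fibroblasts. Cells got 1 h compound exposure before a 10 min PDGF-BB challenge. A 4-parameter logistic fit gave IC50 as the concentration yielding 50 percent of control.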

cFMS = target: T2, cFMS (Homo sapiens, UniProt P07333); test: cFMS Cell-Based Assay (Example C); settings: averaged IC50; phospho-cFMS in THP-1 cells stimulated with 250 ng/mL recombinant human MCSF; read-out: cFMS Cell ELISA IC50
T2 construct: THP-1 cells (human acute monocytic leukemia cell line) were serum-starved for 4 hours; endogenous in cells; host or cells: THP-1 cells (human acute monocytic leukemia cell line)
T2 sequence (P07333 20-972): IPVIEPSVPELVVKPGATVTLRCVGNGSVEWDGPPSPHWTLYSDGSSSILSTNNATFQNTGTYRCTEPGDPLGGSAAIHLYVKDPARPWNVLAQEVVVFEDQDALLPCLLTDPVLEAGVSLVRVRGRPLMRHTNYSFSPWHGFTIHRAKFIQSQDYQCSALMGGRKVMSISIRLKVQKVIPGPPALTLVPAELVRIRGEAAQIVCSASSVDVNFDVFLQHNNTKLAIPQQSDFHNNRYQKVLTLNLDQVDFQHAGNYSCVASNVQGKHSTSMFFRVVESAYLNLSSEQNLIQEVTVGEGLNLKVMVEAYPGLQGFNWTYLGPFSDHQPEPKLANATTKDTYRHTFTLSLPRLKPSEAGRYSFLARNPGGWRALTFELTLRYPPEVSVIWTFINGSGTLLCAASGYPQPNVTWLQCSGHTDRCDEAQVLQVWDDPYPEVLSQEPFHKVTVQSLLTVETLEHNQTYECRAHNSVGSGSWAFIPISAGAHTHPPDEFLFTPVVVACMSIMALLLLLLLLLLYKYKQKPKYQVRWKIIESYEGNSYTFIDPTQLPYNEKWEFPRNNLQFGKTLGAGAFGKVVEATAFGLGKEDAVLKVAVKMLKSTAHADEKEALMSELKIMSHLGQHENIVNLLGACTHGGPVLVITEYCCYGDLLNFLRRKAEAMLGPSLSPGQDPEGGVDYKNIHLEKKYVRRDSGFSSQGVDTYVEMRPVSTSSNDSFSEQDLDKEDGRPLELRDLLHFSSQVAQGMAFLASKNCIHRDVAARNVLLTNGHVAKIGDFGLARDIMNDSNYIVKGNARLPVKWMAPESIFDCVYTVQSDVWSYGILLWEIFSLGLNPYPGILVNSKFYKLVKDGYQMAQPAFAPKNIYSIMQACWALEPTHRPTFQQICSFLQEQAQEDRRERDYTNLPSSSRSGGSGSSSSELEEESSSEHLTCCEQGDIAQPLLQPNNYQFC
Procedure, shortened: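 Phosphotyrosine on cFMS, captured from lysates and quantified by ELISA, reads receptor activation after 1 min of 250 ng/mL human MCSF. Beforehand, THP-1 cells were serum-starved for 4 h and exposed to compound for 1 h (9 points, 3-fold, typically up to 5,000 nM). IC50 from a 4-parameter logistic fit as 50 percent of control.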

c-KIT = target: T3, c-KIT (Homo sapiens, UniProt P10721); test: c-KIT Cell-Based Assay (Example D); settings: averaged IC50; phospho-c-KIT in M-07e cells stimulated with 150 ng/ml recombinant human SCF; read-out: cKIT Cell ELISA IC50
T3 construct: M-07e cells (human acute megakaryoblastic leukemia cell line) were serum-starved for 4 hours; endogenous in cells; host or cells: M-07e cells (human acute megakaryoblastic leukemia cell line)
T3 sequence (P10721 26-976): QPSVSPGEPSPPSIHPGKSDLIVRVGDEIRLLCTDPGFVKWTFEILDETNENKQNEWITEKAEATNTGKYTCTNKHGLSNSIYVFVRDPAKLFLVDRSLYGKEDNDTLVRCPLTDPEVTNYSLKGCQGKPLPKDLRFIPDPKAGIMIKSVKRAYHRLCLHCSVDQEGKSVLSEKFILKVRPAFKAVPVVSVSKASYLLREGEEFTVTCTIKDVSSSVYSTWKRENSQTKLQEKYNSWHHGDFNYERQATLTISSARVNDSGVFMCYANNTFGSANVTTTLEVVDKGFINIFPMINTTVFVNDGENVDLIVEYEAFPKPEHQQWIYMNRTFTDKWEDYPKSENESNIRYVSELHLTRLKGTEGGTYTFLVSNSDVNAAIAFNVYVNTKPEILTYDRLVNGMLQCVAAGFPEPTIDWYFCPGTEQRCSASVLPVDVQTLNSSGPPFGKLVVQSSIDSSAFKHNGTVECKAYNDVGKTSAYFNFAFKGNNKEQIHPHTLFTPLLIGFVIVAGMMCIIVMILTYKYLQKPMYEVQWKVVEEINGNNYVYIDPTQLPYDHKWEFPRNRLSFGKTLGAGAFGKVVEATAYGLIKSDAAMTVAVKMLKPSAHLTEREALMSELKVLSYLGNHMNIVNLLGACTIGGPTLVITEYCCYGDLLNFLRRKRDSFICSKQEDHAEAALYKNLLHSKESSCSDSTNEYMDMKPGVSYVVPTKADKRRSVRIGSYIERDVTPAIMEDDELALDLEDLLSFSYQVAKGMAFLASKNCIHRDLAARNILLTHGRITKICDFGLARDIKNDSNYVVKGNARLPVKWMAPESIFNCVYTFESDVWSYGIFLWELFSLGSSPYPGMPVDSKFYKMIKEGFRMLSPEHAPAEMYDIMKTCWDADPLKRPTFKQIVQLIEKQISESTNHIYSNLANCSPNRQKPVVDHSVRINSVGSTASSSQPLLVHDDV
Procedure, shortened: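 Phospho-c-KIT ELISA readout, calibrated with purified phospho-SCF R, gave IC50 (4-parameter fit, 50% of control). Before lysis, M-07e cells were starved 4 h, exposed 1 h to a 9-point 3-fold series (highest usually 5,000 nM), and stimulated with 150 ng/ml SCF for 4 min.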

T1 sequence (P09619 33-1106): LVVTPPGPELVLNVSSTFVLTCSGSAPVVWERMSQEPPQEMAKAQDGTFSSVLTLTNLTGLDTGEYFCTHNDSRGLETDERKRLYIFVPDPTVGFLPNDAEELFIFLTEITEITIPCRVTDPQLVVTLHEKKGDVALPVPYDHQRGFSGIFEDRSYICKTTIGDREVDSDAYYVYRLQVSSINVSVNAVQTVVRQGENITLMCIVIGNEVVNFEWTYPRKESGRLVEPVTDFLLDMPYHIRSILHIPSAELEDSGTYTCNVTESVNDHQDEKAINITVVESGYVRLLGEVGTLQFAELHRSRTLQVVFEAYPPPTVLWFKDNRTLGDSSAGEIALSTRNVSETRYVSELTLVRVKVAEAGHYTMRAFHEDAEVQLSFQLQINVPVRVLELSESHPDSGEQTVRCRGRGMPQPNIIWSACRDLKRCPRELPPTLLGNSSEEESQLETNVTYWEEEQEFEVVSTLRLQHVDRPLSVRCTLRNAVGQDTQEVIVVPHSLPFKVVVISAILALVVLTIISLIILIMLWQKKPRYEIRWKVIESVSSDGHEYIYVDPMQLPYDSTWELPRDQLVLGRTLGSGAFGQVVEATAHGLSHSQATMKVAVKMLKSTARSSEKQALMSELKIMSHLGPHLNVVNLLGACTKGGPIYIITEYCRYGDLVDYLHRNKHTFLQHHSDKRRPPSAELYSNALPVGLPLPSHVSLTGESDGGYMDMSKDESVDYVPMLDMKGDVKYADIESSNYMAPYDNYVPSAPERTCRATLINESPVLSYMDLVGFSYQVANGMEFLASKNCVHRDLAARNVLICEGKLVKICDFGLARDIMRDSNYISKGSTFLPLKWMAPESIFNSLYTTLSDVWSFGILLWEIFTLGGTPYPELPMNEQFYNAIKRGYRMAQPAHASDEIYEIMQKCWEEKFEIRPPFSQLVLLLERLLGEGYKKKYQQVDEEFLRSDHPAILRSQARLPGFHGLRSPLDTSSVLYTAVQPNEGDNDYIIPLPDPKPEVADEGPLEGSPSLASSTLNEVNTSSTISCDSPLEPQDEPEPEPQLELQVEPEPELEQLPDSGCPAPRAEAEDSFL

| IC50 (PDGFR beta) | IC50 (cFMS) | IC50 (c-KIT) | Structure (SMILES) |
| --- | --- | --- | --- |
| 9.3 nM | 24.6 nM | 8.7 nM | COCCOc1ccn2c(C(=O)Nc3cccc4c3cnn4Cc3ccc(OC)cc3)cnc2c1 [Example 114, N-(1-(4-methoxybenzyl)-1H-indazol-4-yl)-7-(2-methoxyethoxy)imidazo[1,2-a]pyridine-3-carboxamide] |
| 6.8 nM | 24.1 nM | 13.4 nM | COCCOc1ccn2c(C(=O)Nc3cccc4c3cnn4CC3CCCCC3)cnc2c1 [Example 115, N-(1-(cyclohexylmethyl)-1H-indazol-4-yl)-7-(2-methoxyethoxy)imidazo[1,2-a]pyridine-3-carboxamide] |
| 54 nM | 185 nM | 192 nM | COCCOc1ccn2c(C(=O)Nc3cccc4c3cnn4CC3CCCN(C(=O)OC(C)(C)C)C3)cnc2c1 (stereo not drawn) [Example 116, tert-butyl 3-((4-(7-(2-methoxyethoxy)imidazo[1,2-a]pyridine-3-carboxamido)-1H-indazol-1-yl)methyl)piperidine-1-carboxylate] |
| 178 nM | 310 nM | 581 nM | COCCOc1ccn2c(C(=O)Nc3cccc4c3cnn4Cc3cccnc3C)cnc2c1 [Example 118, 7-(2-methoxyethoxy)-N-(1-((2-methylpyridin-3-yl)methyl)-1H-indazol-4-yl)imidazo[1,2-a]pyridine-3-carboxamide] |
| 17.4 nM | 26.3 nM | 23 nM | COCCOc1ccn2c(C(=O)Nc3cccc4c3cnn4Cc3cccc(OCc4ccccc4)c3)cnc2c1 [Example 119, N-(1-(3-(benzyloxy)benzyl)-1H-indazol-4-yl)-7-(2-methoxyethoxy)imidazo[1,2-a]pyridine-3-carboxamide] |
| 7.7 nM | 34.4 nM | 14.5 nM | COCCOc1ccn2c(C(=O)Nc3cccc4c3cnn4Cc3ccc(C(F)(F)F)cc3)cnc2c1 [Example 120, 7-(2-methoxyethoxy)-N-(1-(4-(trifluoromethyl)benzyl)-1H-indazol-4-yl)imidazo[1,2-a]pyridine-3-carboxamide] |
| 13.3 nM | 20.9 nM | 73.1 nM | COCCOc1ccn2c(C(=O)Nc3cccc4c3cnn4Cc3cccnc3)cnc2c1 [Example 121, 7-(2-methoxyethoxy)-N-(1-(pyridin-3-ylmethyl)-1H-indazol-4-yl)imidazo[1,2-a]pyridine-3-carboxamide] |
| 49.5 nM | 131 nM | 60.9 nM | COCCOc1ccn2c(C(=O)Nc3cccc4c3cnn4CC3CCN(C(=O)OC(C)(C)C)CC3)cnc2c1 [Example 122, tert-butyl 4-((4-(7-(2-methoxyethoxy)imidazo[1,2-a]pyridine-3-carboxamido)-1H-indazol-1-yl)methyl)piperidine-1-carboxylate] |
| 6.9 nM | 8.3 nM | 9.5 nM | COCCOc1ccn2c(C(=O)Nc3cccc4c3cnn4Cc3ccc(C)nc3)cnc2c1 [Example 124, 7-(2-methoxyethoxy)-N-(1-((6-methylpyridin-3-yl)methyl)-1H-indazol-4-yl)imidazo[1,2-a]pyridine-3-carboxamide] |
| 2.1 nM | 12.5 nM | 19.8 nM | COc1ccn2c(C(=O)Nc3cccc4c3cnn4Cc3ccccc3)cnc2c1 [Example 125, N-(1-benzyl-1H-indazol-4-yl)-7-methoxyimidazo[1,2-a]pyridine-3-carboxamide] |
| 34.5 nM | 27.4 nM | 22.2 nM | O=C(Nc1cccc2c1cnn2Cc1ccccc1)c1cnc2ccccn12 [Example 126, N-(1-benzyl-1H-indazol-4-yl)imidazo[1,2-a]pyridine-3-carboxamide] |
| 1.7 nM | 14.9 nM | 67.8 nM | CCOc1ccn2c(C(=O)Nc3cccc4c3cnn4Cc3ccccc3)cnc2c1 [Example 127, N-(1-benzyl-1H-indazol-4-yl)-7-ethoxyimidazo[1,2-a]pyridine-3-carboxamide] |
| 117 nM | 80 nM | 124 nM | O=C(Nc1cccc2c1cnn2Cc1ccccn1)c1cnc2ccccn12 [Example 129, N-(1-(pyridin-2-ylmethyl)-1H-indazol-4-yl)imidazo[1,2-a]pyridine-3-carboxamide] |
| 682 nM | 993 nM | 5000 nM | COCCOc1ccn2c(C(=O)Nc3cccc4c3cnn4CC3CCCNC3)cnc2c1 (stereo not drawn) [Example 131, 7-(2-methoxyethoxy)-N-(1-(piperidin-3-ylmethyl)-1H-indazol-4-yl)imidazo[1,2-a]pyridine-3-carboxamide hydrochloride] |
| 170 nM | 134 nM | 604 nM | COCCOc1ccn2c(C(=O)Nc3cccc4c3cnn4CC3CCCN(C(C)=O)C3)cnc2c1 (stereo not drawn) [Example 132, N-(1-((1-acetylpiperidin-3-yl)methyl)-1H-indazol-4-yl)-7-(2-methoxyethoxy)imidazo[1,2-a]pyridine-3-carboxamide] |
| 2.4 nM | 3.1 nM | 11 nM | COCCOc1ccn2c(C(=O)Nc3c(Br)ccc4c3cnn4Cc3ccccc3)cnc2c1 [Example 134, N-(1-Benzyl-5-bromo-1H-indazol-4-yl)-7-(2-methoxyethoxy)imidazo[1,2-a]pyridine-3-carboxamide] |
| 362 nM | 228 nM | 396 nM | COCCOc1ccn2c(C(=O)Nc3ccc(Cl)c4c3cnn4Cc3ccccc3)cnc2c1 [Example 135, N-(1-benzyl-7-chloro-1H-indazol-4-yl)-7-(2-methoxyethoxy)imidazo[1,2-a]pyridine-3-carboxamide] |
| 1000 nM | 20.7 nM | 54.1 nM | COCCOc1ccn2c(C(=O)Nc3c(Cl)cc(Cl)c4c3cnn4Cc3ccccc3)cnc2c1 [Example 136, N-(1-benzyl-5,7-dichloro-1H-indazol-4-yl)-7-(2-methoxyethoxy)imidazo[1,2-a]pyridine-3-carboxamide] |
| 2 nM | 3.1 nM | 3.1 nM | COCCOc1ccn2c(C(=O)Nc3c(Cl)ccc4c3cnn4Cc3ccccc3)cnc2c1 [Example 137, N-(1-benzyl-5-chloro-1H-indazol-4-yl)-7-(2-methoxyethoxy)imidazo[1,2-a]pyridine-3-carboxamide] |
| 1.9 nM | 8.5 nM | 3.9 nM | CC(C)c1cccc(Cn2ncc3c(NC(=O)c4cnc5cc(OCCN6CCN(C)CC6)ccn45)cccc32)n1 [Example 138, N-(1-((6-isopropylpyridin-2-yl)methyl)-1H-indazol-4-yl)-7-(2-(4-methylpiperazin-1-yl)ethoxy)imidazo[1,2-a]pyridine-3-carboxamide] |
| 1.3 nM | 10.6 nM | 7.9 nM | Cc1cc(Cn2ncc3c(NC(=O)c4cnc5cc(OCCN6CCN(C)CC6)ccn45)cccc32)nn1C(C)C [Example 139, N-(1-((1-isopropyl-5-methyl-1H-pyrazol-3-yl)methyl)-1H-indazol-4-yl)-7-(2-(4-methylpiperazin-1-yl)ethoxy)imidazo[1,2-a]pyridine-3-carboxamide] |
| 2.5 nM | 3.1 nM | 4.8 nM | COCCOc1ccn2c(C(=O)Nc3cccc4c3cnn4Cc3cccc(OC)c3)cnc2c1 [Example 140, N-(1-(3-methoxybenzyl)-1H-indazol-4-yl)-7-(2-methoxyethoxy)imidazo[1,2-a]pyridine-3-carboxamide] |
| 1.6 nM | 4.4 nM | 3.7 nM | COCCOc1ccn2c(C(=O)Nc3cccc4c3cnn4Cc3cccc(Cl)c3)cnc2c1 [Example 141, N-(1-(3-chlorobenzyl)-1H-indazol-4-yl)-7-(2-methoxyethoxy)imidazo[1,2-a]pyridine-3-carboxamide] |
| 14.2 nM | 6.9 nM | 6.1 nM | COCCOc1ccn2c(C(=O)Nc3cccc4c3cnn4Cc3cccc(C)n3)cnc2c1 [Example 142, 7-(2-methoxyethoxy)-N-(1-((6-methylpyridin-2-yl)methyl)-1H-indazol-4-yl)imidazo[1,2-a]pyridine-3-carboxamide] |
| 12 nM | 4.8 nM | 58.9 nM | COCCOc1ccn2c(C(=O)Nc3cccc4c3cnn4Cc3cccc(C)c3)cnc2c1 [Example 143, 7-(2-methoxyethoxy)-N-(1-(3-methylbenzyl)-1H-indazol-4-yl)imidazo[1,2-a]pyridine-3-carboxamide] |
| 13 nM | 20.5 nM | 55.9 nM | O=C(Nc1cccc2c1cnn2Cc1ccccc1)c1cnc2cc(-c3cn[nH]c3)ccn12 [Example 145, N-(1-benzyl-1H-indazol-4-yl)-7-(1H-pyrazol-4-yl)imidazo[1,2-a]pyridine-3-carboxamide] |
| 109 nM | 58.2 nM | 36.9 nM | CC(=O)c1ccn2c(C(=O)Nc3cccc4c3cnn4Cc3ccccc3)cnc2c1 [Example 146, 7-acetyl-N-(1-benzyl-1H-indazol-4-yl)imidazo[1,2-a]pyridine-3-carboxamide] |

From patent publication US10669269B2, “Substituted N-(1H-indazol-4-yl)imidazo[1,2-a]pyridine-3-carboxamide compounds as type III receptor tyrosine kinase inhibitors” (ARRAY BIOPHARMA INC., priority 2010, dated 2020)
